Earlier results as cited in paper PMC11272189, “PNA5, A Novel Mas Receptor Agonist, Improves Neurovascular and Blood-Brain-Barrier Function in a Mouse Model of Vascular Cognitive Impairment and Dementia” (Aging and Disease, 2024).

System: healthy control mice
Conditions: daily injections at 1mg/kg/day
Experimental: All use of animals in this study conformed to the guidelines approved by the Institutional Animal Care and Use Committee at the University of Arizona and in accordance with the National Institutes of Health Guidelines for the Care and Use of Laboratory Animals. Both the number of animals used, and their suffering were minimized. The number of animals needed for each experiment was determined using a G*Power analysis. Importantly for the present study, we have shown in previously published studies that treatment of healthy control mice with daily injections of PNA5 or the native peptide ...

Angiotensin-(1-7) (DRVYIHP; Angiotensin 1-7; UniProt P01019 25-31, looked up) [Ang-(1-7), native peptide]
effect on heart function, cognitive function or circulating cytokines: no effect
